2 compounds from patent US9763961B2, “Compositions that modulate the activity of estrogen receptors and estrogen-related receptors and methods for use” (CITY OF HOPE, priority 2005, dated 2017) can be followed below.

Holding throughout (assay type): cell-based
Test [1] concerns the target T1, ERα (Homo sapiens, UniProt P03372).
T1 construct: expressed in transfected cells; host or cells: HeLa
T1 sequence (P03372 1-595): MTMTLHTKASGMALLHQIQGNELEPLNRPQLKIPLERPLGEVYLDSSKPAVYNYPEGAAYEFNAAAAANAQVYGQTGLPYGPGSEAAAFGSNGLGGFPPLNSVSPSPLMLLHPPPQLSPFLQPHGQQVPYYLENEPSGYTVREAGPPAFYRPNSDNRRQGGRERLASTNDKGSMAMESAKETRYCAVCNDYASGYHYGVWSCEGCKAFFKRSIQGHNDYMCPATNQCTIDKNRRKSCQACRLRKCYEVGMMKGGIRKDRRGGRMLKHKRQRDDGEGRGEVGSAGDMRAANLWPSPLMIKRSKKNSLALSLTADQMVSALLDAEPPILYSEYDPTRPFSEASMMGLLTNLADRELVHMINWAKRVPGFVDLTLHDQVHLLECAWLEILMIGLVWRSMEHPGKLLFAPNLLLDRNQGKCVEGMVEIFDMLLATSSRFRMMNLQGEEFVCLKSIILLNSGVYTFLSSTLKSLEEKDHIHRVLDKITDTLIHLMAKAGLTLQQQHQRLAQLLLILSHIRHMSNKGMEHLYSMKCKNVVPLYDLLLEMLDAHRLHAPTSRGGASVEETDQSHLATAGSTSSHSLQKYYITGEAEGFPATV
Description: Transient transfection luciferase assay with pSG5-ERa and ERE-SV40 reporter in HeLa cells, with 100 pM estradiol. As to conditions: for IC50: HeLa cells, in the presence of 100 pM of estradiol, 24 h; for Antagonistic properties on ERa (in words): transient transfection.

The target in test [2] is T2, ERβ (Homo sapiens, UniProt Q92731).
T2 construct: expressed in transfected cells; host or cells: HeLa
Description: Transient transfection luciferase assay with pCI-ERb and ERE-SV40 reporter in HeLa cells, with 100 pM estradiol. As to conditions: for IC50: HeLa cells, in the presence of 100 pM of estradiol, 24 h; for Antagonistic properties on ERb (in words): transient transfection.

Test [3] deals with T3, ERRβ (Homo sapiens, UniProt O95718).
T3 construct: expressed in transfected cells; host or cells: HeLa
T3 sequence (O95718 1-433): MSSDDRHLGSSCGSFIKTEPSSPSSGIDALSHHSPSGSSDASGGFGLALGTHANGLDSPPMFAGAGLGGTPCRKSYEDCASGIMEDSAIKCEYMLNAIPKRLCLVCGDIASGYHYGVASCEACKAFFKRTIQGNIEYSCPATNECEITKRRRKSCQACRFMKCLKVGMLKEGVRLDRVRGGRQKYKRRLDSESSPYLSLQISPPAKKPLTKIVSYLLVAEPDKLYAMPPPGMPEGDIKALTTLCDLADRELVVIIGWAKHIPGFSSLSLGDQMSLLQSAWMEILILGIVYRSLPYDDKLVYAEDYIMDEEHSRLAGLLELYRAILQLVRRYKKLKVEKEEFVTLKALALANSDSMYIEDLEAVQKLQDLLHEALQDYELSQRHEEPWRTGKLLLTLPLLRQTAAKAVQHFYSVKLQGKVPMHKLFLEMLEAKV
Put plainly: Transient transfection luciferase assay with pSG5-ERRb and SF1-SV40 reporter in HeLa cells. Particulars: for IC50: HeLa cells, 24 h, average of at least two experiments; for Antagonistic properties on ERRb (in words): transient transfection.

The target in test [4] is T4, ERRγ (Homo sapiens, UniProt P62508).
T4 construct: expressed in transfected cells; host or cells: HeLa
T4 sequence (P62508 1-458): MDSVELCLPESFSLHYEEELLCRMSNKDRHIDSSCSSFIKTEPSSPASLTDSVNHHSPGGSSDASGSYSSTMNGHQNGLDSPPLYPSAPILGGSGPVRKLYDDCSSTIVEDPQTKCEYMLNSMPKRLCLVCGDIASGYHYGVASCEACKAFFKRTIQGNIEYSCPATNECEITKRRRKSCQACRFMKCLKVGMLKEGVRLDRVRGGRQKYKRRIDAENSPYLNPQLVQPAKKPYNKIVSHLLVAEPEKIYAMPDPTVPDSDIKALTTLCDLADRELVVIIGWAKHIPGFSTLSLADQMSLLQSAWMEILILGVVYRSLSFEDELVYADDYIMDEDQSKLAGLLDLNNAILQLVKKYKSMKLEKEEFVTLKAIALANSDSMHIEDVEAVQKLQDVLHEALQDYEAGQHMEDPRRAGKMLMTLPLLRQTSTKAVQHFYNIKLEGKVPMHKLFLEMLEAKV
Put plainly: Transient transfection luciferase assay with pSG5-ERRg and SF1-SV40 reporter in HeLa cells. Particulars: for IC50: HeLa cells, 24 h, average of at least two experiments; for Antagonistic properties on ERRg (in words): transient transfection.

For test [5], the target named is T5, GAL4-human ERRα LBD fusion (Homo sapiens, UniProt P11474).
T5 construct: GAL4-human ERRα LBD fusion expression plasmid; expressed in transfected cells; host or cells: HeLa
T5 sequence (P11474 193-421 limits assumed): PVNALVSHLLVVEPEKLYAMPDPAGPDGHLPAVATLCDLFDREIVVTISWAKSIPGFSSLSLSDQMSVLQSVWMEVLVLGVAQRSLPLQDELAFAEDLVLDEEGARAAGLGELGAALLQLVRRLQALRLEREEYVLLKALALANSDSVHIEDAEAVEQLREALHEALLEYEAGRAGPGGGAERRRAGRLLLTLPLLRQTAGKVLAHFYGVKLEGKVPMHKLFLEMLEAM
Put plainly: Transient transfection luciferase assay, GAL4-human ERRα LBD fusion with Gal4-TK-Luc reporter in HeLa cells. Particulars: pM-ERRα LBD, 24 h, mean ± SD. On the procedure: Referring to FIG. 2, we have also prepared GAL4-ERRα expression plasmid and luciferase reporter plasmids with GAL4 response element. This is a more sensitive assay method than that using pSG5-ERRα and ERE luciferase reporter plasmids.
To evaluate the functional significance of the interaction of chalcones with ERRα, we incubated these compounds with HeLa cells which were transiently transfected with human ERRα expression plasmid and a luciferase reporter plasmid containing SF1 binding site. […] In order to confirm the results above, HeLa cells were transiently transfected with GAL4-human ERRα LBD fusion expression plasmid and a luciferase reporter plasmid containing GAL4 binding site. […] Most of the compounds, however, have similar IC50 value, and have a similar potency.
Referring to FIG. 2, HeLa cells were cotransfected with pM-ERRα LBD (0.5 μg) and luciferase reporter plasmid containing GAL4 binding site and TK promoter (0.25 μg). The transfected cells were incubated with Compound No. 1-9 for 24 h. After cells were washed with 1× PBS, luciferase activity was measured. Values represent the mean±SD.

Each structure is given as a SMILES string.

T2 sequence (Q92731 whole entry, species assumed): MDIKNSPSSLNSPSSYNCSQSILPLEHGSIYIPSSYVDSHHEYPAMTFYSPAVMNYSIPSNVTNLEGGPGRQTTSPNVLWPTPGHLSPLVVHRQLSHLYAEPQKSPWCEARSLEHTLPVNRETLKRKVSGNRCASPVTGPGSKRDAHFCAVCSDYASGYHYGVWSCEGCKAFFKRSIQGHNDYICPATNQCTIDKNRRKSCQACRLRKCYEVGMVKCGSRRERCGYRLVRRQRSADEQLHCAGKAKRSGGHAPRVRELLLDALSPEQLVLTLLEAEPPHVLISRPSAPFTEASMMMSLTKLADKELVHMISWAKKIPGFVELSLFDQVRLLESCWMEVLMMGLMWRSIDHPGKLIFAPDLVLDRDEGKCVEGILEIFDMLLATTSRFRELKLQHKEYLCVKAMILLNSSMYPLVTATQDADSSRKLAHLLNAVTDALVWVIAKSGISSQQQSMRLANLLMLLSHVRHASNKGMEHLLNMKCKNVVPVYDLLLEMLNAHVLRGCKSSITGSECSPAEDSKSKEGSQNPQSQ

With `COc1cccc(/C=C/C(=O)c2ccc(O)cc2O)c1OC` [Compound No. 1-9, 2′,4′-Dihydroxy-2,3-dimethoxychalcone], in test [1], the IC50 amounted to 3.3 µM and the “Antagonistic properties on ERa (in words)” value is reported as “showed antagonistic properties”. In addition, in test [2], the IC50 turned out to be 4.6 µM and the “Antagonistic properties on ERb (in words)” value is recorded as “showed antagonistic properties”. In test [3], half-maximal inhibition (IC50) required 3.5 µM and the “Antagonistic properties on ERRb (in words)” value is “showed antagonistic properties”. In test [4], the IC50 worked out at 8 µM and the “Antagonistic properties on ERRg (in words)” value is reported as “showed antagonistic properties”. In addition, in test [5], 1.1e+06 ± 700000 pM corresponded to half-maximal inhibition (IC50).

With `O=C(/C=C/c1ccccc1O)c1ccc(O)cc1O` [Compound No. 7-5, 2,2′,4′-Trihydroxychalcone], in test [1], the half-inhibitory concentration (IC50) was found to be 3.7 µM and the “Antagonistic properties on ERa (in words)” value is given as “showed antagonistic properties”. Besides, in test [2], the half-maximal inhibitory concentration (IC50) was found to be 7.4 µM and the “Antagonistic properties on ERb (in words)” value is recorded as “showed antagonistic properties”. Also, in test [3], the IC50 is 6.7 µM and the “Antagonistic properties on ERRb (in words)” value is listed as “showed antagonistic properties”. Moreover, in test [4], the IC50 is 3.7 µM and the “Antagonistic properties on ERRg (in words)” value was “showed antagonistic properties”. Further, the half-maximal inhibitory concentration (IC50) in test [5] came out at 900000 ± 400000 pM.

By IC50 is commonly meant the concentration that gives 50% inhibition.
